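Cells were grown in 96-well plates and exposed to each compound for 48 hours at five concentrations; endpoints were interpolated linearly between bracketing concentrations, or set to the highest concentration if not reached. Here, GI50 denotes the concentration required for 50% inhibition of growth. The concentration for full growth arrest is given as TGI.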
Columns and labels:
Assay in all cases: NCI-60 cell line screen, 48 h
[1] = test system: SF-539 CNS
[2] = test system: U251 CNS
[3] = test system: OVCAR-3 ovarian
[4] = test system: SK-MEL-5 melanoma
[5] = test system: CCRF-CEM leukemia
[6] = test system: UACC-62 melanoma
[7] = test system: COLO 205 colon
[8] = test system: A498 renal
[9] = test system: OVCAR-4 ovarian
[10] = test system: UACC-257 melanoma
[11] = test system: LOX IMVI melanoma
[12] = test system: HS 578T breast
[13] = test system: SNB-75 CNS
[14] = test system: KM12 colon
[15] = test system: SK-MEL-28 melanoma
[16] = test system: MDA-MB-468 breast
[17] = test system: UO-31 renal
[18] = test system: MDA-MB-435
[19] = test system: SF-268 CNS
[20] = test system: OVCAR-5 ovarian
[21] = test system: NCI/ADR-RES ovarian
[22] = test system: SK-MEL-2 melanoma
[23] = test system: HL-60(TB) leukemia
[24] = test system: NCI-H460 lung
[25] = test system: NCI-H226 lung
[26] = test system: CAKI-1 renal
[27] = test system: TK-10 renal
[28] = test system: HCC-2998 colon
[29] = test system: SF-295 CNS
[30] = test system: A549 NSCLC

Compound CC(C)NC(=O)c1cc(-c2ccc(NC(=O)Nc3ccc(N4CCN(C)CC4)c(C(F)(F)F)c3)cc2)nc2cccnc12 has a GI50 [1] of 1.51 µM, a TGI [1] of 3.06 µM and a GI50 [2] of 1.74 µM. For the same compound, the TGI [2] was 3.55 µM, the GI50 [3] was 1.91 µM and the TGI [3] was 3.94 µM. It also gave a GI50 [4] of 2.07 µM, a TGI [4] of 3.76 µM and a GI50 [5] of 0.539 µM. It also gave a TGI [5] of 3.82 µM, a GI50 [6] of 2.11 µM and a TGI [6] of 4.13 µM. It also gave a GI50 [7] of 2.37 µM, a TGI [7] of 5.56 µM and a GI50 [8] of 13.5 µM. The TGI [8] was 19.3 µM, the GI50 [9] was 2.21 µM and the TGI [9] was 5.18 µM. It also gave a GI50 [10] of 2.09 µM, a TGI [10] of 4.2 µM and a GI50 [11] of 1.95 µM. For the same compound, the TGI [11] was 3.62 µM, the GI50 [12] was 1.36 µM and the TGI [12] was 7.5 µM. The GI50 [13] was 0.657 µM, the TGI [13] was 4.94 µM and the GI50 [14] was 2.43 µM. The TGI [14] was 5.12 µM, the GI50 [15] was 1.98 µM and the TGI [15] was 3.68 µM. It also gave a GI50 [16] of 0.801 µM, a TGI [16] of 2.29 µM and a GI50 [17] of 1.76 µM. For the same compound, the TGI [17] was 3.39 µM, the GI50 [18] was 1.94 µM and the TGI [18] was 3.88 µM. The GI50 [19] was 6.09 µM, the TGI [19] was 16.8 µM and the GI50 [20] was 1.98 µM. The TGI [20] was 3.81 µM, the GI50 [21] was 3.29 µM and the TGI [21] was 9.35 µM. It also gave a GI50 [22] of 2.72 µM, a TGI [22] of 6.5 µM and a GI50 [23] of 0.572 µM. It also gave a TGI [23] of 3.18 µM, a GI50 [24] of 2.11 µM and a TGI [24] of 4.04 µM. For the same compound, the GI50 [25] was 6.13 µM, the TGI [25] was 14.8 µM and the GI50 [26] was 1.96 µM. For the same compound, the TGI [26] was 3.74 µM, the GI50 [27] was 2.24 µM and the TGI [27] was 4.18 µM. For the same compound, the GI50 [28] was 2.09 µM, the TGI [28] was 3.96 µM and the GI50 [29] was 1.83 µM. For the same compound, the TGI [29] was 3.57 µM and the GI50 [30] was 6.5 µM.

Reference: PubChem BioAssay (NCI)
